Data reported in patent US10670605B2, “Cysteine reactive probes and uses thereof” (The Scripps Research Institute, priority 2015, dated 2020).
Where “and” joins values, the source holds several entries; their conditions need not be identical. Equal entries are not always repeated.

Legend:
Test in all cases: Competitive isoTOP-ABPP, cell lysates
Type in all cases: binding
[1] = target: T1, PCK2 C306 (Q16822) (Homo sapiens, UniProt Q16822); details: for isoTOP-ABPP ratio, Q16822_C306: 500 μM, invitro
T1 sequence (Q16822 33-640): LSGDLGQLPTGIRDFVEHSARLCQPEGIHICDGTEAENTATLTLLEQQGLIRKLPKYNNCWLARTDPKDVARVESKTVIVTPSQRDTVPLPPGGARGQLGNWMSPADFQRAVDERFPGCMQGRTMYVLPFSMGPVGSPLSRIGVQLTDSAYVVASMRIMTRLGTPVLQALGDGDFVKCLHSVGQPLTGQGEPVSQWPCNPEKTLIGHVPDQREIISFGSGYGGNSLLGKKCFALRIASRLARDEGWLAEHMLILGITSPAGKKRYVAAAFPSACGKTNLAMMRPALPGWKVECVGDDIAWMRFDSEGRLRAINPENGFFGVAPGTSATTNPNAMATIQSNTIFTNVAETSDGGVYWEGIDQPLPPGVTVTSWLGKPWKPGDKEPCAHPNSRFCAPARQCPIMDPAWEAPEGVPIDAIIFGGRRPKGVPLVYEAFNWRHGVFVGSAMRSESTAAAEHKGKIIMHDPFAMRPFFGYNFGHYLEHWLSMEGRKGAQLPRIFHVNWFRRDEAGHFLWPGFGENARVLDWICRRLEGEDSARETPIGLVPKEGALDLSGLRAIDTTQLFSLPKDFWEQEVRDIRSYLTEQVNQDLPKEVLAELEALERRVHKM

[2] = target: SMARCC2 C145 (Q8TAQ2) (Homo sapiens, UniProt Q8TAQ2)
[3] = target: T2, UBE2S C118 (Q16763) (Homo sapiens, UniProt Q16763)
T2 sequence (Q16763 1-222): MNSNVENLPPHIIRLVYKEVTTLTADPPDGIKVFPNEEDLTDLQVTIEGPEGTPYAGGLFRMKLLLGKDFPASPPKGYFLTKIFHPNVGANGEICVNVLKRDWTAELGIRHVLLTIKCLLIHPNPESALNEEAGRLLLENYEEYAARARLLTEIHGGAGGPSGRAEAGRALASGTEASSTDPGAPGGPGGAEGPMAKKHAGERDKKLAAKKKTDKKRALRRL

[4] = target: T3, UCHL3 C95 (P15374) (Homo sapiens, UniProt P15374)
T3 sequence (P15374 1-230): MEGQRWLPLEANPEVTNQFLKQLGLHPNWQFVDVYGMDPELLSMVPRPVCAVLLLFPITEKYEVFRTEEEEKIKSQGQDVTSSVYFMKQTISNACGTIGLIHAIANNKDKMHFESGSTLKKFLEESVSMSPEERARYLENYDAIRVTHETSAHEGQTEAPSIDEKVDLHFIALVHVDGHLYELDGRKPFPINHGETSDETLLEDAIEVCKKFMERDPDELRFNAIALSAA

[5] = target: T4, ACAT1 C196 (P24752) (Homo sapiens, UniProt P24752); details: for isoTOP-ABPP ratio, P24752_C196: 500 μM, invitro
T4 sequence (P24752 34-427): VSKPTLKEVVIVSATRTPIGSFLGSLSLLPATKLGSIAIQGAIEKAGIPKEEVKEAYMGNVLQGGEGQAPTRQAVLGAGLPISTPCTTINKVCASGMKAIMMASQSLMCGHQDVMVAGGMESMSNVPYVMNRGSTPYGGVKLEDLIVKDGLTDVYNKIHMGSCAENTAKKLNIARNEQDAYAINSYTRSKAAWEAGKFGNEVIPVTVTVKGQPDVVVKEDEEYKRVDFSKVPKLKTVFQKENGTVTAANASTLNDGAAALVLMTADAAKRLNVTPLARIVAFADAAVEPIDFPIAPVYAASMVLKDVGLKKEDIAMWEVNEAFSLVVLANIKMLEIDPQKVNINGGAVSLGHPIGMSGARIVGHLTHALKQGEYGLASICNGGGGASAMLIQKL

[6] = target: T5, ACAT1 C413 (P24752) (Homo sapiens, UniProt P24752); details: for isoTOP-ABPP ratio P24752_C413: 500 μM, invitro
T5 sequence (P24752 34-427): T4 sequence (P24752 34-427)

[7] = target: T6, ACAT1 C126 (P24752) (Homo sapiens, UniProt P24752); details: for isoTOP-ABPP ratio, P24752_C126: 500 μM, invitro
T6 sequence (P24752 34-427): T4 sequence (P24752 34-427)

Chain of SMARCC2 C145 (Q8TAQ2) (Q8TAQ2 whole entry): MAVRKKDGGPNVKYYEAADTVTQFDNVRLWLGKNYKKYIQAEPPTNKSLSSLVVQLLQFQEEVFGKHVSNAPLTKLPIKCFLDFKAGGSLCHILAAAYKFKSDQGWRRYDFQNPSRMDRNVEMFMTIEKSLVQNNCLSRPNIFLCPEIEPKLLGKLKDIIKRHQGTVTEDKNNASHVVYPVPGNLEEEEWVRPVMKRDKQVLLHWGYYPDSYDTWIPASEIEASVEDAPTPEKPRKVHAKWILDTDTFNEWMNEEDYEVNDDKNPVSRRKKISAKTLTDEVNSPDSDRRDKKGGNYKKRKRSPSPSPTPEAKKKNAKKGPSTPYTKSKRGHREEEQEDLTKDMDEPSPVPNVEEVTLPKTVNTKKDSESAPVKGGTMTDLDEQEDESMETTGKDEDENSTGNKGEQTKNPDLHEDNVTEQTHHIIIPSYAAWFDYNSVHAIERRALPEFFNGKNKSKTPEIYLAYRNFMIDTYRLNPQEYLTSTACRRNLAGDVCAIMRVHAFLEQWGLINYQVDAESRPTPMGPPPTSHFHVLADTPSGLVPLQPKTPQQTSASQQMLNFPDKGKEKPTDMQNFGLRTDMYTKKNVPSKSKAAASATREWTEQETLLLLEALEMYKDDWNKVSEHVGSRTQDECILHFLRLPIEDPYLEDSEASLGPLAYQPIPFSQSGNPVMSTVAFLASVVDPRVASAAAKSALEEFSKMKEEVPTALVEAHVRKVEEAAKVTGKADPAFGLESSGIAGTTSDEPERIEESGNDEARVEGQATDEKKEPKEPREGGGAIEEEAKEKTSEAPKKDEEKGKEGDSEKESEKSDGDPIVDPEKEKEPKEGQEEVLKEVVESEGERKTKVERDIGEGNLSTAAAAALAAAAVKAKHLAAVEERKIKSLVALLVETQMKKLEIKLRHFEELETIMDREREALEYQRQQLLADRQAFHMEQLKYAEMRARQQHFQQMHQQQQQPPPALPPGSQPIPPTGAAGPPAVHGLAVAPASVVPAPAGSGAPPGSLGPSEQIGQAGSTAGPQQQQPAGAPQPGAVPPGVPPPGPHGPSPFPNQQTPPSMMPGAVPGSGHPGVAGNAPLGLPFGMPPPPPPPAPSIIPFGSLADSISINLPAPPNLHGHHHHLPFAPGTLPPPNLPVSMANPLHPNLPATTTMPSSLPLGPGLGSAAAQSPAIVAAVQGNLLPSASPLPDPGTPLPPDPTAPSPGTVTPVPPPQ

C=CC(=O)N(c1ccccc1)C1CCCCC1 [compound 46]
isoTOP-ABPP reactivity profile ratio, Q16822_C306 ([1]; 500 μm, in-vitro_ramos_231): 0.9
isoTOP-ABPP reactivity profile ratio, Q8TAQ2_C145 ([2]; 500 μm, in-vitro_ramos_231): 1.0
isoTOP-ABPP reactivity profile ratio, Q16763_C118 ([3]; 500 μm, in-vitro_ramos_231): 1.0
isoTOP-ABPP reactivity profile ratio, P15374_C95 ([4]; 500 μm, in-vitro_ramos_231): 1.0
isoTOP-ABPP reactivity profile ratio, P24752_C196 ([5]; 500 μm, in-vitro_ramos_231): 0.9
isoTOP-ABPP reactivity profile ratio, P24752_C413 ([6]; 500 μm, in-vitro_ramos_231): 1.1
isoTOP-ABPP reactivity profile ratio, P24752_C126 ([7]; 500 μm, in-vitro_ramos_231): 0.9

CCN(CC)c1ccc(S(N)(=O)=O)cc1NC(=O)CCl [compound 30]
isoTOP-ABPP ratio (reactivity profile), Q16822_C306 ([1]; 500 μm in-vitro ramos): 1.2
isoTOP-ABPP reactivity ratio, Q16822_C306 ([1]; 500 μm, in-vitro_ramos): 1.1
isoTOP-ABPP ratio (reactivity profile), Q8TAQ2_C145 ([2]; 500 μm in-vitro ramos): 1.1
isoTOP-ABPP reactivity ratio, Q8TAQ2_C145 ([2]; 500 μm, in-vitro_ramos): 1.5
isoTOP-ABPP ratio (reactivity profile), Q16763_C118 ([3]; 500 μm in-vitro ramos): 0.7
isoTOP-ABPP reactivity ratio, Q16763_C118 ([3]; 500 μm, in-vitro_ramos): 1.1
isoTOP-ABPP ratio (reactivity profile), P15374_C95 ([4]; 500 μm in-vitro ramos): 0.7
isoTOP-ABPP reactivity ratio, P15374_C95 ([4]; 500 μm, in-vitro_ramos): 1.0
isoTOP-ABPP ratio (reactivity profile), P24752_C196 ([5]; 500 μm in-vitro ramos): 0.8
isoTOP-ABPP reactivity ratio, P24752_C196 ([5]; 500 μm, in-vitro_ramos): 1.1
isoTOP-ABPP ratio (reactivity profile), P24752_C413 ([6]; 500 μm in-vitro ramos): 1.1
isoTOP-ABPP reactivity ratio, P24752_C413 ([6]; 500 μm, in-vitro_ramos): 1.9
isoTOP-ABPP ratio (reactivity profile), P24752_C126 ([7]; 500 μm in-vitro ramos): 1.1
isoTOP-ABPP reactivity ratio, P24752_C126 ([7]; 500 μm, in-vitro_ramos): 1.6

CC(Cl)C(=O)Nc1cc(C(F)(F)F)cc(C(F)(F)F)c1 (centres unmarked) [compound 25]
isoTOP-ABPP ratio (reactivity profile), Q16822_C306 ([1]; 500 μm in-vitro ramos_231): 0.8
isoTOP-ABPP ratio (reactivity profile), Q8TAQ2_C145 ([2]; 500 μm in-vitro ramos_231): 0.9
isoTOP-ABPP ratio (reactivity profile), Q16763_C118 ([3]; 500 μm in-vitro ramos_231): 1.0
isoTOP-ABPP ratio (reactivity profile), P15374_C95 ([4]; 500 μm in-vitro ramos_231): 0.8
isoTOP-ABPP ratio (reactivity profile), P24752_C196 ([5]; 500 μm in-vitro ramos_231): 0.9
isoTOP-ABPP ratio (reactivity profile), P24752_C413 ([6]; 500 μm in-vitro ramos_231): 1.0
isoTOP-ABPP ratio (reactivity profile), P24752_C126 ([7]; 500 μm in-vitro ramos_231): 0.9

N#C/C(=C\c1cc(C(F)(F)F)cc(C(F)(F)F)c1)C(N)=O [compound 23]
isoTOP-ABPP ratio (reactivity profile), Q16822_C306 ([1]; 500 μm in-vitro ramos_231): 3.0
isoTOP-ABPP ratio (reactivity profile), Q8TAQ2_C145 ([2]; 500 μm in-vitro ramos_231): 1.3
isoTOP-ABPP ratio (reactivity profile), Q16763_C118 ([3]; 500 μm in-vitro ramos): 2.4
isoTOP-ABPP ratio (reactivity profile), Q16763_C118 ([3]; 500 μm in-vitro ramos_231): 1.6
isoTOP-ABPP ratio (reactivity profile), P15374_C95 ([4]; 500 μm in-vitro ramos): 1.1
isoTOP-ABPP ratio (reactivity profile), P15374_C95 ([4]; 500 μm in-vitro ramos_231): 0.8
isoTOP-ABPP ratio (reactivity profile), P24752_C196 ([5]; 500 μm in-vitro ramos): 1.8
isoTOP-ABPP ratio (reactivity profile), P24752_C413 ([6]; 500 μm in-vitro ramos): 1.2
isoTOP-ABPP ratio (reactivity profile), P24752_C413 ([6]; 500 μm in-vitro ramos_231): 1.1
isoTOP-ABPP ratio (reactivity profile), P24752_C126 ([7]; 500 μm in-vitro ramos): 0.8
isoTOP-ABPP ratio (reactivity profile), P24752_C126 ([7]; 500 μm in-vitro ramos_231): 0.8

CC(C)CCOCCNC(=O)CCl [compound 27]
isoTOP-ABPP ratio (reactivity profile), Q16822_C306 ([1]; 500 μm in-vitro ramos): 1.1
isoTOP-ABPP ratio (reactivity profile), Q16822_C306 ([1]; 500 μm in-vitro ramos_231): 1.4 and 1.5
isoTOP-ABPP ratio (reactivity profile), Q8TAQ2_C145 ([2]; 500 μm in-vitro ramos): 1.2
isoTOP-ABPP ratio (reactivity profile), Q8TAQ2_C145 ([2]; 500 μm in-vitro ramos_231): 0.9
isoTOP-ABPP ratio (reactivity profile), Q16763_C118 ([3]; 500 μm in-vitro ramos): 0.9
isoTOP-ABPP ratio (reactivity profile), Q16763_C118 ([3]; 500 μm in-vitro ramos_231): 0.8
isoTOP-ABPP ratio (reactivity profile), P15374_C95 ([4]; 500 μm in-vitro ramos): 1.0
isoTOP-ABPP ratio (reactivity profile), P15374_C95 ([4]; 500 μm in-vitro ramos_231): 0.4
isoTOP-ABPP ratio (reactivity profile), P24752_C196 ([5]; 500 μm in-vitro ramos): 1.1
isoTOP-ABPP ratio (reactivity profile), P24752_C196 ([5]; 500 μm in-vitro ramos_231): 0.9 and 1.0
isoTOP-ABPP ratio (reactivity profile), P24752_C413 ([6]; 500 μm in-vitro ramos): 1.3
isoTOP-ABPP ratio (reactivity profile), P24752_C413 ([6]; 500 μm in-vitro ramos_231): 0.9 and 1.1
isoTOP-ABPP ratio (reactivity profile), P24752_C126 ([7]; 500 μm in-vitro ramos): 1.3
isoTOP-ABPP ratio (reactivity profile), P24752_C126 ([7]; 500 μm in-vitro ramos_231): 0.9 and 1.0

O=C(CCl)N1CCN(S(=O)(=O)c2ccccc2F)CC1 [compound 10]
isoTOP-ABPP ratio, Q16822_C306 [1]; 231: 1.9
isoTOP-ABPP ratio, Q16822_C306 ([1]; ramos): 1.1
isoTOP-ABPP ratio Q8TAQ2_C145 ([2]; 500 μM, invitro, 231): 4.2
isoTOP-ABPP ratio, Q16763_C118 ([3]; 500 μM, invitro, 231): 1.7
isoTOP-ABPP ratio, P15374_C95 ([4]; 500 μM, invitro, 231): 2.0
isoTOP-ABPP ratio, P24752_C196 [5]; 231: 2.5
isoTOP-ABPP ratio, P24752_C196 ([5]; ramos): 1.7
isoTOP-ABPP ratio P24752_C413 [6]; 231: 13.0
isoTOP-ABPP ratio P24752_C413 ([6]; ramos): 1.6
isoTOP-ABPP ratio, P24752_C126 [7]; 231: 3.2
isoTOP-ABPP ratio, P24752_C126 ([7]; ramos): 1.5

C=CC(=O)N(Cc1cccnc1)c1cc(C(F)(F)F)cc(C(F)(F)F)c1 [compound 31]
isoTOP-ABPP reactivity ratio, Q16822_C306 ([1]; 500 μm, in-vitro_ramos): 1.2
isoTOP-ABPP reactivity ratio, Q16822_C306 ([1]; 500 μm, in-vitro_ramos_231): 1.9
isoTOP-ABPP reactivity ratio, Q8TAQ2_C145 ([2]; 500 μm, in-vitro_ramos): 0.9
isoTOP-ABPP reactivity ratio, Q8TAQ2_C145 ([2]; 500 μm, in-vitro_ramos_231): 1.1
isoTOP-ABPP reactivity ratio, Q16763_C118 ([3]; 500 μm, in-vitro_ramos): 0.8
isoTOP-ABPP reactivity ratio, Q16763_C118 ([3]; 500 μm, in-vitro_ramos_231): 0.9
isoTOP-ABPP reactivity ratio, P15374_C95 ([4]; 500 μm, in-vitro_ramos): 0.7
isoTOP-ABPP reactivity ratio, P15374_C95 ([4]; 500 μm, in-vitro_ramos_231): 0.9
isoTOP-ABPP reactivity ratio, P24752_C196 ([5]; 500 μm, in-vitro_ramos): 0.9
isoTOP-ABPP reactivity ratio, P24752_C196 ([5]; 500 μm, in-vitro_ramos_231): 1.2
isoTOP-ABPP reactivity ratio, P24752_C413 ([6]; 500 μm, in-vitro_ramos): 1.0
isoTOP-ABPP reactivity ratio, P24752_C413 ([6]; 500 μm, in-vitro_ramos_231): 1.6
isoTOP-ABPP reactivity ratio, P24752_C126 ([7]; 500 μm, in-vitro_ramos_231): 1.1
